Structures can show the parent of a compound that is named as a salt.

The target in the assay is T1, human β-Secretase (soluble part, AA1-AA460; sBACE-Fc) (Homo sapiens, UniProt P56817).
T1 construct: The soluble part of the human β-Secretase (AA1-AA460) was cloned into the ASP2-Fc10-1-IRES-GFP-neoK mammalian expression vector; made in house
T1 sequence (P56817 22-460): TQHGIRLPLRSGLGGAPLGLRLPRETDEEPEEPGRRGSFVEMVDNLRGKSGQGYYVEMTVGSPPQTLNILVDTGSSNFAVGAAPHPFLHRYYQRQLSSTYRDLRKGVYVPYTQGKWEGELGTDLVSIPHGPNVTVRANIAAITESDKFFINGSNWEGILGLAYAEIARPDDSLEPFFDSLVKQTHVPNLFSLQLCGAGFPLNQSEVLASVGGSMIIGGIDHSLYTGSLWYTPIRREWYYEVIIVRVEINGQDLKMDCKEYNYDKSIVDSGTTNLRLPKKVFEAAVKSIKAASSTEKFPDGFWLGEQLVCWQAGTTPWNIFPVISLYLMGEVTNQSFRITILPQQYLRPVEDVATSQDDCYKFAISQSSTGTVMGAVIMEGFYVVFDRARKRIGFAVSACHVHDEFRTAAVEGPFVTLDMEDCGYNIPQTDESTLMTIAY
As to the kind of experiment: TR-FRET assay. The following applies: substrate (Europium)CEVNLDAEFK(Qsy7) 100 nM, pH 4.5, 15 min at RT; read-out: IC50 (nM) in TR-FRET assay. Type of assay: biochemical. How it is done:
The enzyme used in the IGEN Cleavage-, Fluorescent-, TR-FRET- and BiaCore assays is described as follows:
The soluble part of the human β-Secretase (AA1-AA460) was cloned into the ASP2-Fc10-1-IRES-GFP-neoK mammalian expression vector. The gene was fused to the Fc domain of IgG1 (affinity tag) and stably cloned into HEK 293 cells. Purified sBACE-Fc is stored in Tris buffer, pH 9.2 and has a purity of 95%.
Enzyme was diluted to 6 μg/mL and the substrate (Europium)[…](Qsy7) to 200 nM in reaction buffer (NaAcetate, chaps, triton x-100, EDTA pH 4.5). Compounds were diluted to the desired concentration in dimethyl sulfoxide (final dimethyl sulfoxide concentration in assay is 5%). […] Enzyme (9 μL) and 1 μL of compound in dimethyl sulfoxide was added to the plate, mixed and pre-incubated for 10 min. Substrate (10 μL) was added and the reaction proceeded in the dark for 15 min at RT. The reaction was stopped with the addition of 7 μL NaAcetate, pH 9. The fluorescence of the product was measured on a Victor II plate reader with an excitation wavelength of 340 nm and an emission wavelength of 615 nm. […] The dimethyl sulfoxide control defined the 100% activity level and 0% activity was defined by exclusion of the enzyme (using reaction buffer instead).
In general terms: In TR-FRET formats the signal depends on donor and acceptor labels being close together.
Take `CC(C)S(=O)(=O)Oc1cccc(C2(c3ccc(F)c(-c4cc(Cl)cc(Cl)c4)c3)N=C(N)N(C)C2=O)c1` (stereo not shown) [Example 109, 3-[2-Amino-4-(3′,5′-dichloro-6-fluorobiphenyl-3-yl)-1-methyl-5-oxo-4,5-dihydro-1H-imidazol-4-yl]phenyl propane-2-sulfonate]: the concentration for half-maximal inhibition (IC50) – broadly, the concentration at which inhibition is half-maximal – was 263 nM.
Under `CN1C(=O)C(c2cccc(OS(=O)(=O)N(C)C)c2)(c2ccc(F)c(-c3cccnc3F)c2)N=C1N` (stereo not shown) [Example 110, 3-{2-Amino-4-[4-fluoro-3-(2-fluoropyridin-3-yl)phenyl]-1-methyl-5-oxo-4,5-dihydro-1H-imidazol-4-yl}phenyldimethylsulfamate] stands 114 nM; under `CN1C(=O)C(c2cccc(OS(=O)(=O)N(C)C)c2)(c2ccc(F)c(-c3cccnc3)c2)N=C1N` (stereo not shown) [Example 111, 3-[2-Amino-4-(4-fluoro-3-pyridin-3-ylphenyl)-1-methyl-5-oxo-4,5-dihydro-1H-imidazol-4-yl]phenyldimethylsulfamate], 93 nM; under `COc1cccc(-c2cc(C3(c4cccc(OS(=O)(=O)N(C)C)c4)N=C(N)N(C)C3=O)ccc2F)c1` (stereo not shown) [Example 112, 3-[2-Amino-4-(6-fluoro-3′-methoxybiphenyl-3-yl)-1-methyl-5-oxo-4,5-dihydro-1H-imidazol-4-yl]phenyl dimethylsulfamate], 150 nM.
Turning to `CN1C(=O)C(c2cccc(OS(=O)(=O)N(C)C)c2)(c2ccc(F)c(-c3cc(Cl)cc(Cl)c3)c2)N=C1N` (stereo not shown) [Example 113, 3-[2-Amino-4-(3′,5′-dichloro-6-fluorobiphenyl-3-yl)-1-methyl-5-oxo-4,5-dihydro-1H-imidazol-4-yl]phenyl dimethylsulfamate], the IC50 came out at 121 nM.
On to `CCCS(=O)(=O)Oc1ccc(C2(c3ccc(F)c(-c4cncc(OC)c4)c3)N=C(N)N(C)C2=O)cc1` (stereo not shown) [Example 129, 4-{2-Amino-4-[4-fluoro-3-(5-methoxypyridin-3-yl)phenyl]-1-methyl-5-oxo-4,5-dihydro-1H-imidazol-4-yl}phenyl propane-1-sulfonate hydrochloride], for which the half-maximal inhibitory concentration (IC50) was 35 nM.
Take `CCCS(=O)(=O)Oc1cccc(C2(c3ccc(F)c(-c4cncc(OC)c4)c3)N=C(N)N(C)C2=O)c1` (stereo not shown) [Example 130, 3-{2-Amino-4-[4-fluoro-3-(5-methoxypyridin-3-yl)phenyl]-1-methyl-5-oxo-4,5-dihydro-1H-imidazol-4-yl}phenyl propane-1-sulfonate hydrochloride]: the half-maximal inhibitory concentration (IC50) is 59 nM.
For `CN1C(=O)C(c2cccc(OS(=O)(=O)c3ccccc3)c2)(c2ccc(F)c(-c3cncnc3)c2)N=C1N` (stereo not shown) [Example 133, 3-[2-Amino-4-(4-fluoro-3-pyrimidin-5-ylphenyl)-1-methyl-5-oxo-4,5-dihydro-1H-imidazol-4-yl]phenyl benzenesulfonate hydrochloride], the IC50 amounted to 33 nM.
For the compound `CN1C(=O)C(c2ccc(OS(=O)(=O)C(F)(F)F)cc2)(c2ccc(F)c(-c3cncc(Cl)c3)c2)N=C1N` (stereo not shown) [Example 140, 4-{2-Amino-4-[3-(5-chloropyridin-3-yl)-4-fluorophenyl]-1-methyl-5-oxo-4,5-dihydro-1H-imidazol-4-yl}phenyl trifluoromethanesulfonate 0.75 acetate], the IC50 came out at 116 nM.
`CN1C(=O)C(c2ccc(OS(=O)(=O)C(F)(F)F)cc2)(c2ccc(F)c(-c3cccnc3)c2)N=C1N` (stereo not shown) [Example 141, 4-[2-Amino-4-(4-fluoro-3-pyridin-3-ylphenyl)-1-methyl-5-oxo-4,5-dihydro-1H-imidazol-4-yl]phenyl trifluoromethanesulfonate 0.5 acetate]: the concentration for half-maximal inhibition (IC50) turned out to be 107 nM.
As for `CN1C(=O)C(c2ccc(OS(=O)(=O)C(F)(F)F)cc2)(c2ccc(F)c(-c3cccnc3F)c2)N=C1N` (stereo not shown) [Example 142, 4-{2-Amino-4-[4-fluoro-3-(2-fluoropyridin-3-yl)phenyl]-1-methyl-5-oxo-4,5-dihydro-1H-imidazol-4-yl}phenyl trifluoromethanesulfonate 0.75 acetate], the IC50 was 140 nM.
Turning to `CN1C(=O)C(c2ccc(OS(=O)(=O)C(F)(F)F)cc2)(c2ccc(F)c(-c3cnccn3)c2)N=C1N` (stereo not shown) [Example 143, 4-[2-Amino-4-(4-fluoro-3-pyrazin-2-ylphenyl)-1-methyl-5-oxo-4,5-dihydro-1H-imidazol-4-yl]phenyl trifluoromethanesulfonate 0.5 acetate], the IC50 is 214 nM.
Turning to `CN1C(=O)C(c2ccc(OS(=O)(=O)C(F)(F)F)cc2)(c2ccc(F)c(-c3cncc(C#N)c3)c2)N=C1N` (stereo not shown) [Example 144, 4-{2-Amino-4-[3-(5-cyanopyridin-3-yl)-4-fluorophenyl]-1-methyl-5-oxo-4,5-dihydro-1H-imidazol-4-yl}phenyl trifluoromethanesulfonate 0.5 acetate], the IC50 was determined as 321 nM.
Turning to `CN1C(=O)C(c2ccc(OS(=O)(=O)C(F)(F)F)cc2)(c2ccc(F)c(-c3cncc(F)c3)c2)N=C1N` (stereo not shown) [Example 145, 4-{2-amino-4-[4-fluoro-3-(5-fluoropyridin-3-yl)phenyl]-1-methyl-5-oxo-4,5-dihydro-1H-imidazol-4-yl}phenyl trifluoromethanesulfonate 0.5 acetate], the concentration for half-maximal inhibition (IC50) is 150 nM.
For the compound `COc1cncc(-c2cc(C3(c4ccc(OS(=O)(=O)C(F)(F)F)cc4)N=C(N)N(C)C3=O)ccc2F)c1` (stereo not shown) [Example 148, 4-{2-Amino-4-[4-fluoro-3-(5-methoxypyridin-3-yl)phenyl]-1-methyl-5-oxo-4,5-dihydro-1H-imidazol-4-yl}phenyl trifluoromethanesulfonate 0.5 acetate], the IC50 is 40 nM.
Consider `CN1C(=O)C(c2ccc(OS(=O)(=O)C(F)(F)F)cc2)(c2ccc(F)c(-c3cc(Cl)ccn3)c2)N=C1N` (stereo not shown) [Example 149, 4-{2-Amino-4-[3-(4-chloropyridin-2-yl)-4-fluorophenyl]-1-methyl-5-oxo-4,5-dihydro-1H-imidazol-4-yl}phenyl trifluoromethanesulfonate 0.75 acetate], for which the IC50 stood at 163 nM.
`CCN1C(=O)C(c2ccc(OS(C)(=O)=O)cc2)(c2ccc(F)c(-c3cc(Cl)cc(Cl)c3)c2)N=C1N` (stereo not shown) [Example 161, 4-[2-Amino-4-(3′,5′-dichloro-6-fluorobiphenyl-3-yl)-1-ethyl-5-oxo-4,5-dihydro-1H-imidazol-4-yl]phenyl methanesulfonate]: the 50% inhibitory concentration (IC50) amounted to 1680 nM.
Regarding `CCN1C(=O)C(c2ccc(OS(C)(=O)=O)cc2)(c2ccc(F)c(-c3cncnc3)c2)N=C1N` (stereo not shown) [Example 162, 4-[2-Amino-4-(4-fluoro-3-pyrimidin-5-ylphenyl)-1-ethyl-5-oxo-4,5-dihydro-1H-imidazol-4-yl]phenyl methanesulfonate], the IC50 came out at 682 nM.
For `CCN1C(=O)C(c2ccc(OS(C)(=O)=O)cc2)(c2ccc(F)c(-c3cccc(OC)c3)c2)N=C1N` (stereo not shown) [Example 163, 4-[2-Amino-4-(6-fluoro-3′-methoxybiphenyl-3-yl)-1-ethyl-5-oxo-4,5-dihydro-1H-imidazol-4-yl]phenyl methanesulfonate 0.25acetate], the 50% inhibitory concentration (IC50) was determined as 395 nM.
For `CCN1C(=O)C(c2ccc(OS(C)(=O)=O)cc2)(c2ccc(F)c(-c3cccc(Cl)c3)c2)N=C1N` (stereo not shown) [Example 164, 4-[2-Amino-4-(3′-chloro-6-fluorobiphenyl-3-yl)-1-ethyl-5-oxo-4,5-dihydro-1H-imidazol-4-yl]phenyl methanesulfonate], the 50% inhibitory concentration (IC50) is 912 nM.
`CCCN1C(=O)C(c2ccc(OS(C)(=O)=O)cc2)(c2ccc(F)c(-c3cncnc3)c2)N=C1N` (stereo not shown) [Example 165, 4-[2-Amino-4-(4-fluoro-3-pyrimidin-5-ylphenyl)-1-propyl-5-oxo-4,5-dihydro-1H-imidazol-4-yl]phenyl methanesulfonate 0.5 acetate]: the half-maximal inhibitory concentration (IC50) worked out at 589 nM.
As to `COc1ccc(C#N)c(-c2cc(C3(c4ccc(OS(C)(=O)=O)cc4)N=C(N)N(C)C3=O)ccc2F)c1` (stereo not shown) [Example 167, 4-[2-Amino-4-(2′-cyano-6-fluoro-5′-methoxybiphenyl-3-yl)-1-methyl-5-oxo-4,5-dihydro-1H-imidazol-4-yl]phenyl methanesulfonate], the IC50 was 46 nM.
Take `COc1ccc(OC(F)(F)F)c(-c2cc(C3(c4ccc(OS(C)(=O)=O)cc4)N=C(N)N(C)C3=O)ccc2F)c1` (stereo not shown) [Example 168, 4-{2-Amino-4-[6-fluoro-5′-methoxy-2′-(trifluoromethoxy)biphenyl-3-yl]-1-methyl-5-oxo-4,5-dihydro-1H-imidazol-4-yl}phenyl methanesulfonate]: the IC50 turned out to be 349 nM.
Under `CN1C(=O)C(c2ccc(OS(C)(=O)=O)cc2)(c2ccc(F)c(-c3cnccc3Cl)c2)N=C1N` (stereo not shown) [Example 169, 4-{2-amino-4-[3-(4-chloropyridin-3-yl)-4-fluorophenyl]-1-methyl-5-oxo-4,5-dihydro-1H-imidazol-4-yl}phenyl methanesulfonate hydrochloride] stands 171 nM.
With `CN1C(=O)C(c2cccc(OS(C)(=O)=O)c2)(c2cccc(-c3cnccc3Cl)c2)N=C1N` (stereo not shown) [Example 170, 3-{2-Amino-4-[3-(4-chloropyridin-3-yl)phenyl]-1-methyl-5-oxo-4,5-dihydro-1H-imidazol-4-yl}phenyl methanesulfonate hydrochloride], the IC50 turned out to be 651 nM.

Source of the values: patent US20080176862A1, “New Compounds 617” (ASTRAZENECA AB, priority 2006, published 2008).
